# How the values were obtained:
# Format in all cases: cell-based
# Cryptococcus neoformans = assay: in vitro antifungal activity, minimum inhibitory concentration (MIC), Cryptococcus neoformans
# Excerpt: (§1) The antifungal activity of two exemplary phosphocholines prepared using the method of the invention, i.e., (1) synthetic 1,22-Bis-[2-(trimethylammonium)ethylphosphatyl] docosane obtained using the stepwise synthetic route and, (2) synthetic 1,22-Bis-[2-(trimethylammonium)ethyl-phosphatyl] docosane obtained using the one-pot one step route, as well as the antifungal activity of (3) the natural product isolated from Irbachia alata identified as 1,22-Bis-[2-(trimethylammonium)ethyl-phosphatyl] docosane (see International Application filed Oct. 8, 1993 was determined in vitro using three fungal cultures--Candida albicans (CA), Cryptococcus neoformans (CN), and Aspergillus fumigatus (CF). The method used to determine in vitro antifungal activity is described in McGinnis, M. R., Laboratory Handbook of Medical Mycology, Academic Press, New York, London, p 412-416 (1980); and Drouget, E.; Dupont, B.; Improvisi, L.; Vivian, M. A.; and Tortorano, A. M.; "Disc agar difusion and microplate automatized techniques for in vitro evaluation of antifungal agents on yeast and sporulated pathogenic fungi" in In Vitro and In Vivo Evaluation of Antifungal Agents, Eds. Iwata, K. and Vanden Bossche, H., Elsevier Science Publishers, New York, Oxford, p 303 (1986). The minimum inhibitory concentration (MIC) for each is summarized in Table I. Partial inhibition of the fungus of between 25% to 75% was also measured. A description of the partial inhibition measurement can be found in R. L. Stiller, et al, The Journal of Infectious Diseases, 147, No 6 (1983).
# Aspergillus fumigatus [1] = assay: partial inhibition of the fungus, Aspergillus fumigatus; settings: in vitro, partial inhibition of between 25% to 75%
# Excerpt: as §1, with “The minimum inhibitory concentration (MIC) for each is summarized in Table I. Partial inhibition of the fungus of between 25% to 75% was also measured. A description of the partial inhibition measurement can be found in R. L. Stiller, et al, The Journal of Infectious Diseases, 147, No 6 (1983).” left out
# Candida albicans = assay: in vitro antifungal activity, minimum inhibitory concentration (MIC), Candida albicans
# Excerpt: as §1
# Aspergillus fumigatus [2] = assay: in vitro antifungal activity, minimum inhibitory concentration (MIC), Aspergillus fumigatus
# Excerpt: as §1
MIC CN (Cryptococcus neoformans) [µg/mL],MIC (Candida albicans) [µg/mL],MIC (Aspergillus fumigatus [2]) [µg/mL],MIC CA (Candida albicans) [µg/mL],MIC AF (Aspergillus fumigatus [2]) [µg/mL],Compound,Partial inhibition AF (Aspergillus fumigatus [1]) [µg/mL]
0.08,,,,,"C[N+](C)(C)CCOP(=O)([O-])OCCCCCCCCCCCCCCCCCCCCCCOP(=O)([O-])OCC[N+](C)(C)C [Synthetic 1,22-Bis[2-trimethyl-ammonium)ethyl phosphatyl] do] [1,22-Bis [2-(trimethylammonium)ethylphosphatyl] docosane]",0.02
,1.25,0.08,,,"C[N+](C)(C)CCOP(=O)([O-])OCCCCCCCCCCCCCCCCCCCCCCOP(=O)([O-])OCC[N+](C)(C)C [1,22-Bis [2-(trimethylammonium)ethylphosphatyl] docosane]",
< 0.1,,,0.8,< 0.1,"C[N+](C)(C)CCOP(=O)([O-])OCCCCCCCCCCCCCCCCCCCCCCOP(=O)([O-])OCC[N+](C)(C)C [Synthetic 1,22-Bis[2-(trimethyl-ammonium)ethyl phosphatyl] d] [1,22-Bis [2-(trimethylammonium)ethylphosphatyl] docosane]",0.1
< 0.04,,,1.25,0.08,"C[N+](C)(C)CCOP(=O)([O-])OCCCCCCCCCCCCCCCCCCCCCCOP(=O)([O-])OCC[N+](C)(C)C [Isolated Natural Product 1,22-Bis[2[(trimethyl ammonium)ethy] [1,22-Bis-[2-(trimethylammonium)ethyl-phosphatyl] docosane]",
